± gives the expanded uncertainty stated by the source.
Legend:
[1] = 101 kPa, Liquid, Vibrating tube method
[2] = refractive index (Na D-line) (dimensionless); conditions: 101.33 kPa, Liquid, Standard Abbe refractometry
[3] = refractive index (Na D-line) (dimensionless); xn = mol fraction of the nth substance listed; conditions: 101 kPa, Liquid, Standard Abbe refractometry
[4] = xn = mol fraction of the nth substance listed; conditions: 101 kPa, Liquid, Vibrating tube method

**Q.** Which mass density ([1]; 293.15 K) does the source give for `OCCO` [1,2-ethanediol] here?
**A.** 1113.45 ± 0.16 kg/m3

**Q.** And the mass density ([1]; 303.15 K)?
**A.** 1106.45 ± 0.16 kg/m3

**Q.** And the mass density ([1]; 313.15 K)?
**A.** 1099.38 ± 0.16 kg/m3

**Q.** What about the mass density ([1]; 323.15 K) of the same molecule?
**A.** 1092.24 ± 0.15 kg/m3

**Q.** And the mass density ([1]; 333.15 K)?
**A.** 1085 ± 0.15 kg/m3

**Q.** What about the mass density ([1]; 343.15 K) of the same molecule?
**A.** 1077.65 ± 0.15 kg/m3

**Q.** What about the mass density ([1]; 353.15 K) of the same molecule?
**A.** 1070.17 ± 0.15 kg/m3

**Q.** What about the refractive index ([2]; 298.15 K) of the same molecule?
**A.** 1.43 ± 0.0004

**Q.** What about the refractive index ([2]; 303.15 K) of the same molecule?
**A.** 1.4285 ± 0.0004

**Q.** What about the refractive index ([2]; 313.15 K) of the same molecule?
**A.** 1.4258 ± 0.0004

**Q.** And the refractive index ([2]; 323.15 K)?
**A.** 1.4229 ± 0.0004

**Q.** For `OCCO` [1,2-ethanediol] + CCCCn1cc[n+](C)c1.F[B-](F)(F)F, which refractive index ([3]; 298.15 K, x2 = 0) is on record?
**A.** 1.43 ± 0.0004

**Q.** What about the refractive index ([3]; 303.15 K, x2 = 0) of the same molecule?
**A.** 1.4285 ± 0.0004

**Q.** And the refractive index ([3]; 313.15 K, x2 = 0)?
**A.** 1.4258 ± 0.0004

**Q.** And the refractive index ([3]; 323.15 K, x2 = 0)?
**A.** 1.4229 ± 0.0004

**Q.** For `OCCO` [1,2-ethanediol] + CCn1cc[n+](C)c1.F[B-](F)(F)F, which mass density ([4]; 293.15 K, x2 = 0) is on record?
**A.** 1113.45 ± 0.16 kg/m3

**Q.** And the mass density ([4]; 303.15 K, x2 = 0)?
**A.** 1106.45 ± 0.16 kg/m3

**Q.** What about the mass density ([4]; 313.15 K, x2 = 0) of the same molecule?
**A.** 1099.38 ± 0.16 kg/m3

**Q.** And the mass density ([4]; 323.15 K, x2 = 0)?
**A.** 1092.24 ± 0.15 kg/m3

**Q.** And the mass density ([4]; 333.15 K, x2 = 0)?
**A.** 1085 ± 0.15 kg/m3

**Q.** What about the mass density ([4]; 343.15 K, x2 = 0) of the same molecule?
**A.** 1077.65 ± 0.15 kg/m3

**Q.** And the mass density ([4]; 353.15 K, x2 = 0)?
**A.** 1070.17 ± 0.15 kg/m3

**Q.** And the refractive index ([3]; 298.15 K, x2 = 0)?
**A.** 1.43 ± 0.0004

**Q.** And the refractive index ([3]; 303.15 K, x2 = 0)?
**A.** 1.4285 ± 0.0004

**Q.** What about the refractive index ([3]; 313.15 K, x2 = 0) of the same molecule?
**A.** 1.4258 ± 0.0004

**Q.** What about the refractive index ([3]; 323.15 K, x2 = 0) of the same molecule?
**A.** 1.4229 ± 0.0004

**Q.** Which results are given for `C1COCCO1` [1,4-dioxane]?
**A.** mass density ([1]; 293.15 K): 1033.57 ± 0.26 kg/m3; mass density ([1]; 298.15 K): 1027.92 ± 0.25 kg/m3; mass density ([1]; 303.15 K): 1022.27 ± 0.25 kg/m3; mass density ([1]; 313.15 K): 1010.91 ± 0.24 kg/m3; mass density ([1]; 323.15 K): 999.49 ± 0.23 kg/m3; mass density ([1]; 333.15 K): 987.97 ± 0.23 kg/m3; mass density ([1]; 343.15 K): 976.37 ± 0.23 kg/m3; mass density ([1]; 353.15 K): 964.63 ± 0.23 kg/m3; refractive index ([2]; 298.15 K): 1.4205 ± 0.0004; refractive index ([2]; 303.15 K): 1.4171 ± 0.0004; refractive index ([2]; 313.15 K): 1.4112 ± 0.0004; refractive index ([2]; 323.15 K): 1.4063 ± 0.0004

**Q.** What does the source list for `C1COCCO1` [1,4-dioxane] + CCn1cc[n+](C)c1.F[B-](F)(F)F?
**A.** mass density ([4]; 293.15 K, x2 = 0): 1033.57 ± 0.26 kg/m3; mass density ([4]; 298.15 K, x2 = 0): 1027.92 ± 0.25 kg/m3; mass density ([4]; 303.15 K, x2 = 0): 1022.27 ± 0.25 kg/m3; mass density ([4]; 313.15 K, x2 = 0): 1010.91 ± 0.24 kg/m3; mass density ([4]; 323.15 K, x2 = 0): 999.49 ± 0.23 kg/m3; mass density ([4]; 333.15 K, x2 = 0): 987.97 ± 0.23 kg/m3; mass density ([4]; 343.15 K, x2 = 0): 976.37 ± 0.23 kg/m3; mass density ([4]; 353.15 K, x2 = 0): 964.63 ± 0.23 kg/m3; refractive index ([3]; 298.15 K, x2 = 0): 1.4205 ± 0.0004; refractive index ([3]; 303.15 K, x2 = 0): 1.4171 ± 0.0004; refractive index ([3]; 313.15 K, x2 = 0): 1.4112 ± 0.0004; refractive index ([3]; 323.15 K, x2 = 0): 1.4063 ± 0.0004

**Q.** Which results are given for `CCCCn1cc[n+](C)c1.F[B-](F)(F)F` [1-butyl-3-methylimidazolium tetrafluoroborate]?
**A.** mass density ([1]; 293.15 K): 1204.44 ± 0.4 kg/m3; mass density ([1]; 298.15 K): 1200.89 ± 0.39 kg/m3; mass density ([1]; 303.15 K): 1197.34 ± 0.39 kg/m3; mass density ([1]; 313.15 K): 1190.27 ± 0.39 kg/m3; mass density ([1]; 323.15 K): 1183.24 ± 0.38 kg/m3; mass density ([1]; 333.15 K): 1176.25 ± 0.37 kg/m3; mass density ([1]; 343.15 K): 1169.32 ± 0.37 kg/m3; mass density ([1]; 353.15 K): 1162.44 ± 0.36 kg/m3; refractive index ([2]; 298.15 K): 1.4215 ± 0.0004; refractive index ([2]; 303.15 K): 1.4202 ± 0.0004; refractive index ([2]; 313.15 K): 1.4179 ± 0.0004; refractive index ([2]; 323.15 K): 1.4153 ± 0.0004

**Q.** With `CCCCn1cc[n+](C)c1.F[B-](F)(F)F` [1-butyl-3-methylimidazolium tetrafluoroborate] + C1COCCO1 as the molecule, how does the mass density ([4]; 293.15 K, x1 = 1) read?
**A.** 1204.44 ± 0.4 kg/m3

**Q.** What about the mass density ([4]; 298.15 K, x1 = 1) of the same molecule?
**A.** 1200.89 ± 0.39 kg/m3

**Q.** And the mass density ([4]; 303.15 K, x1 = 1)?
**A.** 1197.34 ± 0.39 kg/m3

**Q.** And the mass density ([4]; 313.15 K, x1 = 1)?
**A.** 1190.27 ± 0.39 kg/m3

**Q.** What about the mass density ([4]; 323.15 K, x1 = 1) of the same molecule?
**A.** 1183.24 ± 0.38 kg/m3

**Q.** And the mass density ([4]; 333.15 K, x1 = 1)?
**A.** 1176.25 ± 0.37 kg/m3

**Q.** And the mass density ([4]; 343.15 K, x1 = 1)?
**A.** 1169.32 ± 0.37 kg/m3

**Q.** And the mass density ([4]; 353.15 K, x1 = 1)?
**A.** 1162.44 ± 0.36 kg/m3

**Q.** What about the refractive index ([3]; 298.15 K, x1 = 1) of the same molecule?
**A.** 1.4215 ± 0.0004

**Q.** And the refractive index ([3]; 303.15 K, x1 = 1)?
**A.** 1.4202 ± 0.0004

**Q.** What about the refractive index ([3]; 313.15 K, x1 = 1) of the same molecule?
**A.** 1.4179 ± 0.0004

**Q.** What about the refractive index ([3]; 323.15 K, x1 = 1) of the same molecule?
**A.** 1.4153 ± 0.0004

**Q.** Which refractive index ([3]; 298.15 K, x1 = 0.0895) does the source give for `CCCCn1cc[n+](C)c1.F[B-](F)(F)F` [1-butyl-3-methylimidazolium tetrafluoroborate] + OCCO here?
**A.** 1.4276 ± 0.0004

**Q.** And the refractive index ([3]; 298.15 K, x1 = 0.1758)?
**A.** 1.4257 ± 0.0004

**Q.** What about the refractive index ([3]; 298.15 K, x1 = 0.3578) of the same molecule?
**A.** 1.4231 ± 0.0004

**Q.** What about the refractive index ([3]; 298.15 K, x1 = 0.4397) of the same molecule?
**A.** 1.4224 ± 0.0004

**Q.** And the refractive index ([3]; 298.15 K, x1 = 0.6482)?
**A.** 1.4217 ± 0.0004

**Q.** And the refractive index ([3]; 298.15 K, x1 = 0.8121)?
**A.** 1.4216 ± 0.0004

**Q.** And the refractive index ([3]; 298.15 K, x1 = 1)?
**A.** 1.4215 ± 0.0004

**Q.** And the refractive index ([3]; 303.15 K, x1 = 0.0895)?
**A.** 1.4258 ± 0.0004

**Q.** What about the refractive index ([3]; 303.15 K, x1 = 0.1758) of the same molecule?
**A.** 1.4239 ± 0.0004

**Q.** And the refractive index ([3]; 303.15 K, x1 = 0.3578)?
**A.** 1.4216 ± 0.0004

**Q.** And the refractive index ([3]; 303.15 K, x1 = 0.4397)?
**A.** 1.4211 ± 0.0004

**Q.** What about the refractive index ([3]; 303.15 K, x1 = 0.6482) of the same molecule?
**A.** 1.4205 ± 0.0004

**Q.** What about the refractive index ([3]; 303.15 K, x1 = 0.8121) of the same molecule?
**A.** 1.4204 ± 0.0004

**Q.** And the refractive index ([3]; 303.15 K, x1 = 1)?
**A.** 1.4202 ± 0.0004

**Q.** And the refractive index ([3]; 313.15 K, x1 = 0.0895)?
**A.** 1.4231 ± 0.0004

**Q.** What about the refractive index ([3]; 313.15 K, x1 = 0.1758) of the same molecule?
**A.** 1.4212 ± 0.0004

**Q.** What about the refractive index ([3]; 313.15 K, x1 = 0.3578) of the same molecule?
**A.** 1.4188 ± 0.0004

**Q.** And the refractive index ([3]; 313.15 K, x1 = 0.4397)?
**A.** 1.4182 ± 0.0004

**Q.** What about the refractive index ([3]; 313.15 K, x1 = 0.6482) of the same molecule?
**A.** 1.4178 ± 0.0004

**Q.** And the refractive index ([3]; 313.15 K, x1 = 0.8121)?
**A.** 1.4179 ± 0.0004

**Q.** What about the refractive index ([3]; 313.15 K, x1 = 1) of the same molecule?
**A.** 1.4179 ± 0.0004

**Q.** What about the refractive index ([3]; 323.15 K, x1 = 0.0895) of the same molecule?
**A.** 1.4203 ± 0.0004

**Q.** And the refractive index ([3]; 323.15 K, x1 = 0.1758)?
**A.** 1.4184 ± 0.0004

**Q.** And the refractive index ([3]; 323.15 K, x1 = 0.3578)?
**A.** 1.4159 ± 0.0004

**Q.** And the refractive index ([3]; 323.15 K, x1 = 0.4397)?
**A.** 1.4154 ± 0.0004

**Q.** What about the refractive index ([3]; 323.15 K, x1 = 0.6482) of the same molecule?
**A.** 1.415 ± 0.0004

**Q.** And the refractive index ([3]; 323.15 K, x1 = 0.8121)?
**A.** 1.4152 ± 0.0004

**Q.** What about the refractive index ([3]; 323.15 K, x1 = 1) of the same molecule?
**A.** 1.4153 ± 0.0004

**Q.** Which results are given for `CCn1cc[n+](C)c1.F[B-](F)(F)F` [1-ethyl-3-methylimidazolium tetrafluoroborate]?
**A.** mass density ([1]; 293.15 K): 1290.63 ± 1.5 kg/m3; mass density ([1]; 298.15 K): 1286.82 ± 1.5 kg/m3; mass density ([1]; 303.15 K): 1283.02 ± 1.5 kg/m3; mass density ([1]; 313.15 K): 1275.45 ± 1.4 kg/m3; mass density ([1]; 323.15 K): 1267.97 ± 1.4 kg/m3; mass density ([1]; 333.15 K): 1260.55 ± 1.4 kg/m3; mass density ([1]; 343.15 K): 1253.18 ± 1.4 kg/m3; mass density ([1]; 353.15 K): 1245.87 ± 1.4 kg/m3; refractive index ([2]; 298.15 K): 1.4111 ± 0.0005; refractive index ([2]; 303.15 K): 1.41 ± 0.0005; refractive index ([2]; 313.15 K): 1.4073 ± 0.0005; refractive index ([2]; 323.15 K): 1.4051 ± 0.0005

From the NIST ThermoML archive (doi:10.1021/je400659p)
